One experiment deals with HSP47. Put plainly: Inhibition of HSP47 production in heat-shocked human cancer cell lines (Western blotting). The format is cell-based. The following applies: Western blot, 20 µM. How it is done:
The following various human cancer cell lines were cultured under 5% CO2, at 37 °C, except for the heat shock treatment period. The lung cancer cell line H69 (ATCC HTB 119), the stomach cancer cell line KATO III (ATCC HTB 103), the colon cancer cell line COLO 205 (ATCC CCL 222), and the prostate cancer cell line DU145 (ATCC HTB 81) were cultured in an RPMI1640 medium containing 10% inactivated FBS.
The breast cancer cell line MCF7 (ATCC HTB 22) was cultured in an RPMI1640 medium containing 10^-8 M β-estradiol and 10% inactivated FBS.
The kidney cancer cell line ACHN (ATCC CRL 1611) was cultured in an MEM medium containing 10% inactivated FBS.
The berberine hydrochloride of the formula (III) (the final concentration = 20 µM: Matsuura Yakugyo) was added to each medium of the above human cancer cell lines 2 days after the inoculation. After the berberine hydrochloride treatment for 24 hours, a heat shock was applied at 45 °C for 15 minutes, and the cells were then cultured at 37 °C overnight. The control tests were carried out by performing the above procedures except that the berberine hydrochloride was not added.
The cells treated in the above (2) were homogenized, and the amounts of HSP47 produced were measured by the Western blotting method.
The cells treated in the above (2) were washed with PBS(-), and 1 ml of lysis buffer [1.0% NP-40, 0.15 M sodium chloride, 50 mM Tris-HCl (pH 8.0), 5 mM-EDTA, 2 mM-N-ethylmaleimide, 2 mM phenylmethylsulfonyl fluoride, 2 µg/ml leupeptin, and 2 µg/ml pepstatin] was added. The whole was allowed to stand for 20 minutes on ice, and then centrifuged at 4 °C and 12000 rpm for 20 minutes. The resulting supernatant (10 µl) was added to 790 µl of PBS(-), and then 200 µl of a protein assay dye reagent solution (Dye Reagent Concentrate: Bio-Rad Laboratories, Catalogue No. 500-0006) was added. The whole was allowed to stand at room temperature for 5 minutes, and the absorbance at 595 nm was measured to determine the amounts of proteins.
For the SDS-polyacrylamide gel electrophoresis (SDS-PAGE) of the samples, the protein concentration of which were measured, aliquots containing the same amount of protein were loaded onto the gel. The SDS-PAGE was performed according to the Laemmli method. After the electrophoresis, the blotting and then blocking were carried out in accordance with the methods described in Example 1. More particularly, the gel was brought into contact with a 0.45 µm nitrocellulose membrane (Schleicher & Schuell, Catalogue No. 401196) at room temperature and 100 V, using a protein-transferring apparatus (Trans-Blot Electrophoretic Transfer Cell: Bio-Rad), and blotting was carried out for 3 hours. The blotting buffer used was same as that used in Example 1 (3). After blotting, the nitrocellulose membrane was incubated in a 10% skimmed milk-PBS(-) solution at room temperature for 30 minutes, to block non-specific bindings.
After blocking, the first antibody reaction was carried out on the nitrocellulose membrane, using a screener blotter (Sanplatec), and the anti-human-HSP47 rat polyclonal antibody prepared in Example 1. Thereafter, the nitrocellulose membrane was washed with two fresh PBS(-) solutions for 5 minutes, using a slow rocking shaker, and then with four fresh PBS(-)-0.1% Tween 20 (Bio-Rad, Catalogue No. 170-6531) solutions for 15 minutes, and finally, with two fresh PBS(-) solutions for 5 minutes.
After washing, the second antibody reaction was carried out for 2 hours, using 5 ml of a solution prepared by diluting a peroxidase-labeled goat anti-rat IgG antibody (Southern Biotechnology, Catalogue No. 3030-05) 5000-fold with a PBS(-) solution containing 2% skimmed milk. After the reaction, the nitrocellulose membrane was washed with two fresh PBS(-) solutions for 5 minutes, and with five fresh PBS(-)-0.1% Tween 20 solutions for 15 minutes, using a slow rocking shaker, and finally, with two fresh PBS(-) solutions for 5 minutes. […]

For experiment [1] the following is noted: agent containing berberine as an active ingredient; cited from earlier work.
For the next experiment, the system named is mice. Conditions: P. acnes intraperitoneally, lipopolysaccharide intraperitoneally 7 days later; cited from earlier work.

The source of these data is patent EP0813871A1, “Berberine derivates for inhibiting production of HSP47” (Kureha Chemical Industry Co., Ltd., priority 1996, dated 1997).

Each structure is given as a SMILES string. Counter-ions that a name gives are not always drawn.

Consider `COc1ccc2cc3[n+](cc2c1OC)CCc1cc2c(cc1-3)OCO2` [berberine hydrochloride], for which the “band of the molecular weight of approximately 47 kDa” value in the experiment with HSP47 (breast cancer cell line MCF7) was “no band of the molecular weight of approximately 47 kDa was detected”; with HSP47 (colon cancer cell line COLO 205), “no band of the molecular weight of approximately 47 kDa was detected”; with HSP47 (kidney cancer cell line ACHN, in comparison with the control tests), “faint”; in the experiment with HSP47 (lung cancer cell line H69) it was “no band of the molecular weight of approximately 47 kDa was detected”; in the experiment with HSP47 (prostate cancer cell line DU145) it was “no band of the molecular weight of approximately 47 kDa was detected”; in the experiment with HSP47 (stomach cancer cell line KATO III), “no band of the molecular weight of approximately 47 kDa was detected”.
For `COc1ccc2cc3[n+](cc2c1OC)CCc1cc2c(cc1-3)OCO2` [berberine], the “anti-GEM (glomerular basement membrane) nephritis” value in experiment [1] is reported as “effectively improved”. Besides, the “survival rate of mice” value in the experiment with mice is “effectively improved”.
